According to ChEMBL document CHEMBL1147593, “Design and synthesis of benzoxazole derivatives as novel melatoninergic ligands” (Bioorg Med Chem Lett, 2004):

molecular target: Melatonin receptor type 1A (Homo sapiens, UniProt P48039); assay: Binding of 2-[125I]iodomelatonin to membrane preparations of NIH3T3 cells stably expressing human Melatonin receptor type 1A; format: cell membranes
Sequence (P48039 whole entry): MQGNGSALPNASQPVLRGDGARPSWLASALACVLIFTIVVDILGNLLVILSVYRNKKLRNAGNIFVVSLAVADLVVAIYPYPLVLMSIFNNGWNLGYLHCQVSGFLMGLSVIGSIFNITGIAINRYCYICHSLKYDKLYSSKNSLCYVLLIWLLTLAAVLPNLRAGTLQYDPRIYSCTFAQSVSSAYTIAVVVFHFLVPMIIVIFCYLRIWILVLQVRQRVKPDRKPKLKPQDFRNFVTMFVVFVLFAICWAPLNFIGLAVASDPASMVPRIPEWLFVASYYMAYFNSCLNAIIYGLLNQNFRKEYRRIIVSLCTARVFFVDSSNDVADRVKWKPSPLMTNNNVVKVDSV

Ki | SMILES
0.35 nM | CCc1nc2cccc([C@@H]3C[C@H]3CNC(C)=O)c2o1
0.05 nM | CCCC(=O)NC[C@@H]1C[C@H]1c1cccc2nc(CCCCc3ccccc3)oc12
4.9 nM | CCCc1nc2cccc([C@@H]3C[C@H]3CNC(=O)C(C)C)c2o1
3.5 nM | CCCc1nc2cccc([C@@H]3C[C@H]3CNC(=O)NCC)c2o1
0.94 nM | CCCC(=O)NC[C@@H]1C[C@H]1c1cccc2nc(CCC)oc12
11.8 nM | CCNC(=O)NC[C@@H]1C[C@H]1c1cccc2nc(C(C)C)oc12
1.3 nM | CC(C)C(=O)NC[C@@H]1C[C@H]1c1cccc2nc(C(C)C)oc12
0.05 nM | CCC(=O)NC[C@@H]1C[C@H]1c1cccc2nc(CCCCc3ccccc3)oc12
0.05 nM | CC(=O)NC[C@@H]1C[C@H]1c1cccc2nc(CCCCc3ccccc3)oc12
0.05 nM | CCCC(=O)NC[C@@H]1C[C@H]1c1cccc2nc(CC)oc12
0.05 nM | CCc1nc2cccc([C@@H]3C[C@H]3CNC(=O)C3CC3)c2o1
0.05 nM | CCC(=O)NC[C@@H]1C[C@H]1c1cccc2nc(CC)oc12
0.05 nM | O=C(NC[C@@H]1C[C@H]1c1cccc2nc(CCCCc3ccccc3)oc12)C1CC1
0.18 nM | CCCc1nc2cccc([C@@H]3C[C@H]3CNC(=O)C3CC3)c2o1
4.9 nM | CCC(=O)NC[C@@H]1C[C@H]1c1cccc2nc(C(C)C)oc12
0.2 nM | CCc1nc2cccc([C@@H]3C[C@H]3CNC(=O)C(C)C)c2o1

molecular target: T1, Melatonin receptor type 1B (Homo sapiens, UniProt P49286); assay: Binding of 2-[125I]iodomelatonin to membrane preparations of NIH3T3 cells stably expressing human Melatonin receptor type 1B; format: cell membranes
T1 sequence (P49286 whole entry): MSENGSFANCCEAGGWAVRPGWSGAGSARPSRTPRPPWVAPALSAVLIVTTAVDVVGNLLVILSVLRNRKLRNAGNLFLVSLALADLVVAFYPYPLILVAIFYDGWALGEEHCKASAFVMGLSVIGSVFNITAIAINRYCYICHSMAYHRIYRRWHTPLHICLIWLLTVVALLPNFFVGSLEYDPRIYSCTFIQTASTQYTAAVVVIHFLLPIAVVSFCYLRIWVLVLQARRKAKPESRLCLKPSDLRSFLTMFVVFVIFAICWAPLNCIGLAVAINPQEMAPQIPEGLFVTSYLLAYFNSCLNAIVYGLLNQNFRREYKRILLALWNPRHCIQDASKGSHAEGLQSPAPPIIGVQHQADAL

Ki | SMILES
0.88 nM | CCc1nc2cccc([C@@H]3C[C@H]3CNC(C)=O)c2o1
0.24 nM | CCCC(=O)NC[C@@H]1C[C@H]1c1cccc2nc(CCCCc3ccccc3)oc12
0.28 nM | CCCc1nc2cccc([C@@H]3C[C@H]3CNC(=O)C(C)C)c2o1
1 nM | CCCc1nc2cccc([C@@H]3C[C@H]3CNC(=O)NCC)c2o1
0.04 nM | CCCC(=O)NC[C@@H]1C[C@H]1c1cccc2nc(CCC)oc12
12.6 nM | CCNC(=O)NC[C@@H]1C[C@H]1c1cccc2nc(C(C)C)oc12
2.5 nM | CC(C)C(=O)NC[C@@H]1C[C@H]1c1cccc2nc(C(C)C)oc12
0.07 nM | CCC(=O)NC[C@@H]1C[C@H]1c1cccc2nc(CCCCc3ccccc3)oc12
0.37 nM | CC(=O)NC[C@@H]1C[C@H]1c1cccc2nc(CCCCc3ccccc3)oc12
0.33 nM | CCCC(=O)NC[C@@H]1C[C@H]1c1cccc2nc(CC)oc12
0.19 nM | CCc1nc2cccc([C@@H]3C[C@H]3CNC(=O)C3CC3)c2o1
0.44 nM | CCC(=O)NC[C@@H]1C[C@H]1c1cccc2nc(CC)oc12
0.48 nM | O=C(NC[C@@H]1C[C@H]1c1cccc2nc(CCCCc3ccccc3)oc12)C1CC1
0.14 nM | CCCc1nc2cccc([C@@H]3C[C@H]3CNC(=O)C3CC3)c2o1
0.32 nM | CCC(=O)NC[C@@H]1C[C@H]1c1cccc2nc(C(C)C)oc12
0.75 nM | CCc1nc2cccc([C@@H]3C[C@H]3CNC(=O)C(C)C)c2o1
